Test results: publication PMC6737615, “Complete oxidation of hydroxymethylfurfural to furandicarboxylic acid by aryl-alcohol oxidase” (Biotechnology for Biofuels, 2019)

How the values were obtained:
[1] = target: aryl-alcohol oxidase (AAO) (Pleurotus eryngii, UniProt O94219, F424Y); test: conversion to FDCA by purified variant with catalase, HPLC; format: biochemical
Excerpt: (§1) conversion to FDCA by purified variant with catalase, HPLC on aryl-alcohol oxidase (AAO) | production of FDCA from HMF by native AAO, and its F501H, F397Y, and I500M/F501 W variants

[2] = target: aryl-alcohol oxidase (AAO) (Pleurotus eryngii, UniProt O94219, F528H); test: as above; format: biochemical
Excerpt: as §1

[3] = target: aryl-alcohol oxidase (AAO) (Pleurotus eryngii, UniProt O94219, I527M/F528W); test: as above; format: biochemical
Excerpt: as §1

[4] = target: T1, aryl-alcohol oxidase (AAO) (Pleurotus eryngii, UniProt O94219); test: HPLC and 1H-NMR of oxidation by purified AAO; format: biochemical; parameters: mature AAO cDNA (GenBank AF064069) expressed in E. coli
T1 sequence (O94219 28-593): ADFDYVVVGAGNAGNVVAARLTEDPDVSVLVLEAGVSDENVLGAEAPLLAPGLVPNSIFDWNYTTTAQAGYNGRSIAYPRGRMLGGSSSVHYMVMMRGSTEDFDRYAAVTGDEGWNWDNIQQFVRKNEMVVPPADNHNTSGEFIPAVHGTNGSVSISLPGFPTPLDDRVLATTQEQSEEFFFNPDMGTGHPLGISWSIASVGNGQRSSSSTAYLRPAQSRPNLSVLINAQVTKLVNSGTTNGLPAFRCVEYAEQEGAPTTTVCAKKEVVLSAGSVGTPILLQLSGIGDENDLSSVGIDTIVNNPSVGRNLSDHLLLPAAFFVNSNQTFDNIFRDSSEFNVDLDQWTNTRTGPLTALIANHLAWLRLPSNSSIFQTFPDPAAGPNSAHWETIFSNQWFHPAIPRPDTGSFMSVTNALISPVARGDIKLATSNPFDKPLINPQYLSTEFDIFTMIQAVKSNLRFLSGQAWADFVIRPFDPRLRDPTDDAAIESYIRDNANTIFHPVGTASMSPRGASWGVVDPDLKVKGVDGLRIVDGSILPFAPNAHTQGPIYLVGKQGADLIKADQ

[5] = target: T1, aryl-alcohol oxidase (AAO); test: biochemical
[6] = target: T1, aryl-alcohol oxidase (AAO); test: turnover at saturating aldehyde, spectrophotometric acid formation; format: biochemical; parameters: mature AAO cDNA (GenBank AF064069) expressed in E. coli
Method: turnover at saturating aldehyde, spectrophotometric acid formation on aryl-alcohol oxidase (AAO) | Turnovers for aldehyde oxidation were calculated at saturating concentration of p-anisaldehyde

Which “% conversion” value [1] does the source give for `O=Cc1ccc(CO)o1` [HMF] here?
Its value is 75.7 % conversion.

What about the “% conversion” value [2] of the same compound?
Its value is 97.9 % conversion.

What about the “% conversion” value [3] of the same compound?
Its value is 52.8 % conversion.

What about the “HPLC and 1H-NMR of oxidation by purified AAO” value [4] of the same compound?
Its value is 2.54 h⁻¹.

`OO` [H2O2] was tested. Which IC50 [5] did it give?
The IC50 was roughly 158 µM.

For `COc1ccc(C=O)cc1` [p-anisaldehyde], which “p-Anisaldehyde / kcat” value [6] is on record?
Its value is 0.122 s⁻¹.
